In patent publication US10111431B2, “Application of biofilm formation inhibiting compounds enhances control of citrus canker” (priority 2013, dated 2018):
In brackets after ≈: the same amount, converted by molar mass. Several values for one entry are separate records, joined by “and”; a condition that tells them apart may be missing. Identical values can stand only once.

Assays:
Xac 306 biofilm cells = assay: Resistance of Xac biofilm cells to copper, cell viability assay in glass tubes; format: cell-based, Xanthomonas citri subsp. citri; details: CuSO4 (1.0 mM) alone, 24 h
Description: The level of copper resistance of biofilms was evaluated using a cell viability assays. Briefly, Xac biofilms were prepared using NB with stationary incubation in glass tubes as described above. After 48 h-incubation, the cultures were removed and bacterial cells attached to the tubes were gently washed three times with SDW. One milliliter of fresh NB with CuSO4 (1.0 mM), D-leucine (10 mM) or IAN (100 μg/mL), or a combination of these compounds was added to each tube. NB alone was used as control. Tubes were kept at room temperature for 24 h and shaken vigorously for 5 min. The suspensions were diluted in 10-fold series, and 10 μL of each dilution spotted in triplicate on NA plate. Plates were incubated at 28° C. for 48 to 72 h prior to assessing bacterial growth. Colonies that grew near the dilution end-point were counted and bacterial populations in the initial suspensions prior to dilution were calculated. Each treatment compromises four replicates and the experiment repeated three times.

[1] = system: X. citri subsp. citri strain 306; assay: Determination of minimum inhibitory concentrations (MICs) in NB medium, 96-well plate; format: cell-based, Xanthomonas citri subsp. citri; details: 48 h
Description: Xac strain 306 was grown in NB at 28° C. with shaking at 200 rpm for 7 h. The cultures were standardized to an OD600 of 0.03 (5×10^7 colony forming unit (CFU)/mL) in NB and then aliquoted into wells of a 96-well plate, 190 μL per well. The initial test concentrations of the compounds were diluted (1:20) in the culture (10 μl of compound in 190 μl of culture) and incubated at 28° C. under stationary conditions. The cultures were monitored at 24 and 48 h at OD600, and the lowest concentration resulting in no growth after 48 h compared to the control samples was defined as the MIC for Xac strain 306. All determinations were conducted in eight replicate wells and repeated three times.

[2] = system: Xac 306 on grapefruit leaves; assay: Plant test in greenhouse, spray inoculation of grapefruit leaves; format: in vivo, Xanthomonas citri subsp. citri
Description: The effect of selected biofilm inhibitors on Xac infection/virulence-was investigated using 20-week-old potted grapefruit (Citrus paradise cv. Duncan grapefruit) plants in a quarantine greenhouse at the Citrus Research and Education Center, Lake Alfred, Fla. Copper (CuSO4, 100 μg/mL), D-leucine (10 mM), IAN (100 μg/mL) and a combination of these compounds were individually prepared in 100 ml of SDW. Bacterial inoculum was prepared by growing Xac 306 on NA plates at 28° C. for 48 h, suspending in SDW, adjusting concentration to approximately OD600=0.3 (5×10^8 CFU/mL). The inoculation was performed by a spray method as described previously (Li and Wang, 2012) with modifications. Briefly, the abaxial surfaces of fully expanded, immature leaves of each plant were sprayed with the following treatments: SDW, Xac 306, and Xac 306 combined with CuSO4 (100 μg/mL), D-leucine (10 mM), IAN (100 μg/mL), or a combination of these compounds. Silwett-L77 (silicone-polyether copolymer, Fisher) was added to each treatment at a 0.03% (V/V) final concentration. After inoculation, the plants were covered with plastic bags for 24 h to maintain a high (>90%) relative humidity and then kept in a greenhouse (approximately 60% relative humidity) for symptom development. All inoculations included a minimum of three immature leaves at a similar developmental stage from each plant, and each treatment comprised four plants. The experiments were repeated three times independently. SDW was applied as a negative control, and Xac306 mixed with SDW as positive control. To determine whether the timing of application of biofilm inhibitors in relation to Xac306 affected canker symptom suppression, the biofilm inhibitors were inoculated on leaves 6 h prior to or after inoculation with Xac306.
For bacterial population assays, the leaves of grapefruit plants were inoculated as described above. Two leaf discs randomly selected from each of three inoculated leaves were cut with a cork borer (0.8 cm in diameter) and then ground in 1 mL of SDW. The suspensions were serially diluted and plated on NA plates containing rifamycin. After incubation at 28° C. for 48 h, bacterial colonies were counted and the number of CFU per square centimeter of leaf tissue was calculated. The assays were repeated three times independently.

Xac306 biofilm formation = assay: Static biofilm formation assay in 96-well polystyrene plates with crystal violet staining; format: cell-based, Xanthomonas citri subsp. citri; details: 0 to 20 mM for D-leucine and D-serine; 0 to 150 μg/mL for IAN
Description: A static biofilm formation assay in 96-well polystyrene plates coupled with CV staining was performed as previously reported with modifications (Li and Wang, 2011). Briefly, a 96-well polystyrene plate (Nunclon surface, Nuncbrand, Denmark) was prepared with 170 μL NB plus 1.0% glucose per well. Aliquots of 20 μL each of the different concentrations of the tested compound were pipetted into eight wells containing 170 μL of NB plus 1.0% glucose. To each of these wells was added 10 μL of the standardized overnight Xac 306 culture (OD600=1.0). Control wells contained NB plus 1.0% glucose and SDW or 0.1% DMSO as a sterility control, or standardized overnight Xac 306 culture as a growth control. The plate was covered by a MicroWell lid (Nunclon), sealed with parafilm to prevent evaporation and incubated at 28° C. for 48 h without shaking. After incubation, the planktonic growth was measured at OD600. To quantify the amount of biofilms formed on the surfaces of the wells, the culture was removed from the wells. After drying, the wells were washed twice with 200 μl of SDW for 5 min, allowed to dry then 200 μl of 0.1% CV added. After 30 minutes, the CV was removed. The wells were washed with excess SDW to remove unbound CV and air dried in an inverted position for 2 h. Afterward, 200 μl of 95% ethanol was added to the wells and incubated for 30 min at room temperature to elute bound CV. The eluted CV was 2-fold diluted in double distilled water and the absorbance at 590 nm was measured. Each data point was averaged from eight replicate wells.

SMILES | viable cells in biofilms (Xac 306 biofilm cells) | MIC of CuSO4 in the presence of D-leucine and IAN ([1]; D-leucine 10 mM and IAN 100 μg/mL, planktonic cells, NB medium) | MIC of CuSO4 in the presence of D-leucine ([1]; D-leucine 10 mM, planktonic cells, NB medium) | MIC of CuSO4 in the presence of IAN ([1]; IAN 100 μg/mL, planktonic cells, NB medium) | MIC ([1]; compound alone, NB medium, 28° C., stationary, OD600) | level of canker lesions on sprayed leaves ([2]; D-leucine 10 mM, IAN 100 μg/mL, CuSO4 100 μg/mL) | log reduction in the number of CFU compared to untreated control ([2]; grapefruit leaves, 7 to 28 days after inoculation) | dose dependence of Xac306 biofilm decrease (Xac306 biofilm formation) | MIC ([1]; Xanthomonas citri)
O=S(=O)([O-])[O-].[Cu+2] [CuSO4] | 3×10^7 CFU/mL | 0.25 mM | 0.25 mM | 0.25 mM | 0.50 mM and 0.5 mM | less than that sprayed with the pathogen alone | ~1.0 log |  | 
N[C@H](CO)C(=O)O [D-serine] |  |  |  |  |  |  |  | decreased Xac306 biofilm in a dose-dependent manner | 8 mM (≈ 841 µg/mL)
